{"source": "ChEMBL document CHEMBL1201862", "about": "“PubChem BioAssay data set” (2004)", "key": {"[1]": {"test": "Luminescence Cell-Based Dose Response HTS to Identify Activators of Luciferase Translation or Activity in H4-C Neuroglioblastoma Cells. [Related pubchem assays: 1829 (Project Summary), 1814 (Primary HTS)]", "type": "functional"}, "[2]": {"test": "Luminescence Cell-Based Dose Retest to Confirm Activators of 5'UTR Stem-Loop Driven Alpha-Synuclein mRNA Translation in H4 Neuroglioblastoma Cells. [Related pubchem assays (depositor defined):AID1813, AID1829]", "type": "functional"}, "[3]": {"test": "Luminescence Cell-Based Dose Response HTS to Identify Activators of 5'UTR Stem-Loop Driven Prion Protein mRNA Translation in H4-C Neuroglioblastoma Cells. [Related pubchem assays: 1829 (Project Summary), 1814 (Primary HTS)]", "type": "functional"}, "[4]": {"test": "Luminescence Cell-Based Dose Confirmation HTS to Identify Activators of 5'UTR Stem-Loop Driven Alpha-Synuclein mRNA Translation in H4 Neuroglioblastoma Cells. [Related pubchem assays: 1829 (Project Summary), 1814 (Primary HTS)]", "type": "functional"}, "[5]": {"test": "Luminescence Cell-Based Dose Response HTS to Identify Activators of Luciferase Translation or Activity in H4 […] Cells. [Related pubchem assays: 1829 (Project Summary), 1814 (Primary HTS)]", "type": "functional"}, "H4": {"system": "H4", "test": "Luminescence Cell-Based Dose Response HTS to Identify Activators of 5'UTR Stem-Loop Driven Prion Protein mRNA Translation in H4 Neuroglioblastoma Cells. [Related pubchem assays: 1829 (Project Summary), 1814 (Primary HTS)]", "type": "functional", "details": "Homo sapiens"}, "[6]": {"molecular_target": "Lysosomal acid glucosylceramidase (Homo sapiens, UniProt P04062)", "sequence (P04062 whole entry)": "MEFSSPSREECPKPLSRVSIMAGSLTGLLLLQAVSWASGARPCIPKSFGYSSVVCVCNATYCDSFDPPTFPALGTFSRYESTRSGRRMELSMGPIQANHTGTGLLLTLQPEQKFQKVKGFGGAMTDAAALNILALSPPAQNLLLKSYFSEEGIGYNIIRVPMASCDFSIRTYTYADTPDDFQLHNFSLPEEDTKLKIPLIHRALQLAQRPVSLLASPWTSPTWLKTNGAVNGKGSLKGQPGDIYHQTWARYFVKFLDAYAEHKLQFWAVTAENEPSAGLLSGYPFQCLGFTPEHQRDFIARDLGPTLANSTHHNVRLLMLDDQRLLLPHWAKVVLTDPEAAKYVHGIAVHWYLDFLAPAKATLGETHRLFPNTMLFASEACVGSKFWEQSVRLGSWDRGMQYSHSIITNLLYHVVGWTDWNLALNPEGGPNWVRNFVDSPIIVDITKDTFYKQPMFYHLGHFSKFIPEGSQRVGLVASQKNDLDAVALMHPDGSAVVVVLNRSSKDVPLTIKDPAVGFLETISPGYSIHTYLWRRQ", "test": "Dose response cell-based high throughput screening assay to identify enhancers of beta-glucosidase activity. [Related pubchem assays: 784 ]", "type": "functional"}, "Protein Rev": {"molecular_target": "Protein Rev (Human immunodeficiency virus type 1 group M subtype B (isolate HXB2)(HIV-1), UniProt P04618)", "sequence (P04618 whole entry)": "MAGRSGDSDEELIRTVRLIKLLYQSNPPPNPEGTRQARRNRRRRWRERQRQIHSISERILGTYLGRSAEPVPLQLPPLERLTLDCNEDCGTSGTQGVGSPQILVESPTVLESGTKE", "test": "inhibitors of Rev binding to RRE RNA, dose response, biochemical, fluorescence polarization, HIV-1 (AID 434976)", "parameters": "species or system Human immunodeficiency virus 1"}, "[7]": {"molecular_target": "Female germline-specific tumor suppressor gld-1 (Caenorhabditis elegans, UniProt Q17339)", "sequence (Q17339 whole entry)": "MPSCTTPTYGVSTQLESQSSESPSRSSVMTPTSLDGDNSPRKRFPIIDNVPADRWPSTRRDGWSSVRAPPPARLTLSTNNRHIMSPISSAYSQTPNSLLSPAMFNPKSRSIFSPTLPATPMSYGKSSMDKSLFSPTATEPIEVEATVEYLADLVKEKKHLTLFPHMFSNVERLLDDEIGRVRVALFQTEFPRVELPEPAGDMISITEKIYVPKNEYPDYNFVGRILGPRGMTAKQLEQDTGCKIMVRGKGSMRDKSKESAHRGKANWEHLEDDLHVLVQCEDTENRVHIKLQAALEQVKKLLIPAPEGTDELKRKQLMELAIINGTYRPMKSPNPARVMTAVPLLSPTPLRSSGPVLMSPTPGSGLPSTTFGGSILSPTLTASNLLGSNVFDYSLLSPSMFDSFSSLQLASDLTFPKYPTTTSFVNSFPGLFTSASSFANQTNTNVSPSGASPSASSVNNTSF", "test": "inhibitors of GLD-1 binding to TGE RNA, dose response, biochemical, fluorescence polarization, C. elegans (AID 2802);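 note: fluorescence polarization of labeled TGE RNA bound by purified gld-1 protein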"}, "[8]": {"test": "growth suppression of PTEN-null colon cells, dose response, cell-based, HCT116 PTEN knockout (AID 1047);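 note: HCT116 colon tumor cells with PTEN knocked out; cells exposed to compound for 60 hours before readout; potency for loss of cell viability measured by luminescence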", "type": "functional"}, "[9]": {"test": "growth suppression of beta-catenin-knockout colon cells, dose response, cell-based, HCT116, human colon tumor (AID 1045);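 note: HCT116 colon tumor cells with beta catenin knocked out; cells exposed to compound for 60 hours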", "type": "functional"}, "Bcl-2-related protein A1": {"molecular_target": "T1, Bcl-2-related protein A1 (Mus musculus, UniProt Q07440)", "T1 sequence (Q07440 whole entry)": "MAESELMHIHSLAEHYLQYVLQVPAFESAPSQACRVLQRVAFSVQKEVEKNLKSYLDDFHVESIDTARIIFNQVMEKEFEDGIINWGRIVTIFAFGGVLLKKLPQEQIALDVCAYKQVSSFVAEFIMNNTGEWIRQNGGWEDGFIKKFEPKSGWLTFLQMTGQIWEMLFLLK", "type": "functional"}, "[10]": {"molecular_target": "T2, Ubiquitin-conjugating enzyme E2 N (Homo sapiens, UniProt P61088)", "T2 sequence (P61088 whole entry)": "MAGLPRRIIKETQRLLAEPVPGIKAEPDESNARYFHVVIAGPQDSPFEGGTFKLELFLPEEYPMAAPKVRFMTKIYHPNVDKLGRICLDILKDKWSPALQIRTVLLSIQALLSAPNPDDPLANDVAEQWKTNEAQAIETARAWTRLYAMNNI", "type": "functional"}, "[11]": {"molecular_target": "T2, Ubiquitin-conjugating enzyme E2 N", "type": "functional", "remark": "listed apart in the source"}, "Vero": {"system": "Vero", "test": "cells", "type": "functional", "details": "Chlorocebus sabaeus"}, "[12]": {"molecular_target": "Envelope glycoprotein gp160 (Human immunodeficiency virus 1, UniProt Q6QLK5)", "sequence (Q6QLK5 whole entry, the tested form may be a part)": "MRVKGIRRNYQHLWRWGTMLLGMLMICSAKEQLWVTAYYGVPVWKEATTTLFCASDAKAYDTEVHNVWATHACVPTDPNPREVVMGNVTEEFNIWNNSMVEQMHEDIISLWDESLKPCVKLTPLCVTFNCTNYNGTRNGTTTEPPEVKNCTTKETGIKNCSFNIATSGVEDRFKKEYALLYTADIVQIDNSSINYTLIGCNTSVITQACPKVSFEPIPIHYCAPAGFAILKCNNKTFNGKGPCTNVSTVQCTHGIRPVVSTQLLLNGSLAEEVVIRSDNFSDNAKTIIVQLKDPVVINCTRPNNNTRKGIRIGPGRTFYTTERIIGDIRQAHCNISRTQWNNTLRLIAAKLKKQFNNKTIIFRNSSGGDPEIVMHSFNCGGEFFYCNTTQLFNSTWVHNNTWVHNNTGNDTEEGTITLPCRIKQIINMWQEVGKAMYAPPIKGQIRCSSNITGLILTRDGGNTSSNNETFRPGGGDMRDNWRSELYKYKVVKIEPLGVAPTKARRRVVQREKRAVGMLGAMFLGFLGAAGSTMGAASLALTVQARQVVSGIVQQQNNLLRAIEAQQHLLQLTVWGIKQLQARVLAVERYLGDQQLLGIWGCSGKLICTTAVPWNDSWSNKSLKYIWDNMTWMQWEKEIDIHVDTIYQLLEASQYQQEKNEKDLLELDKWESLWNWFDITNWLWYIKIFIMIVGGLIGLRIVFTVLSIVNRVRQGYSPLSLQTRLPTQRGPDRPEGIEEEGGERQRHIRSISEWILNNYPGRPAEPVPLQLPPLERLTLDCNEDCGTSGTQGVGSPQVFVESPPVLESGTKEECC", "test": "inhibitors of HIV fusion peptide binding, primary screen, biochemical, uHTS, fluorescence dequenching (AID 1986)"}, "BJ [13]": {"system": "BJ", "test": "cytotoxicity toward BJ-TERT fibroblasts, dose response, cell-based, RAS-independent, luminescence (AID 1933)", "type": "functional", "details": "Homo sapiens"}, "BJ [14]": {"system": "BJ", "test": "cells", "type": "functional, cell-based", "details": "Homo sapiens"}, "BJ [15]": {"system": "BJ", "test": "cytotoxicity toward BJ-TERT-LT-ST fibroblasts, dose response, cell-based, RAS-independent, luminescence (AID 1935);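 note: BJ fibroblasts immortalized with TERT plus LT and ST oncogenes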", "type": "functional", "details": "Homo sapiens"}, "[16]": {"test": "cytotoxicity toward DRD oncogenic fibroblasts, dose response, cell-based, non-viral oncogenic, luminescence (AID 1934)", "type": "functional", "details": "Homo sapiens"}, "Staphylococcus aureus": {"system": "Staphylococcus aureus", "test": "Inhibitors of Bacterial Quorum Sensing Structure Activity Relationship (SAR) Analysis: Dose Response Assay. [Related pubchem assays: 700, 527 ]", "type": "functional, organism-based"}, "Tumor necrosis factor": {"molecular_target": "Tumor necrosis factor (Homo sapiens, UniProt P01375)", "sequence (P01375 whole entry)": "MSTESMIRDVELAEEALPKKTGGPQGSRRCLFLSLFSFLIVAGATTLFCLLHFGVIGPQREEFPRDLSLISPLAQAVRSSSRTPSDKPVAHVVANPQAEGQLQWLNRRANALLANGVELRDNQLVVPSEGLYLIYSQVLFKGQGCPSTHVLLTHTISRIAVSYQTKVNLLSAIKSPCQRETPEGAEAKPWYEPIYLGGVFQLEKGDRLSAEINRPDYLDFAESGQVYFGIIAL", "test": "TNFa-triggered NF-kB activation inhibitors, SAR follow-up, cell-based, revised (AID 2337)", "type": "functional"}, "Interleukin-8": {"molecular_target": "T3, Interleukin-8 (Homo sapiens, UniProt P10145)", "T3 sequence (P10145 whole entry)": "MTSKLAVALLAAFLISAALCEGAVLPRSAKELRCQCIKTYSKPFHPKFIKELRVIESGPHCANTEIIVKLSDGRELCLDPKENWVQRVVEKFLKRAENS", "test": "SAR analysis of tumor necrosis factor alpha (TNF-alpha) induced IL-8 secretion in MCF-7/NOD1 cells. [Related pubchem assays (depositor defined):AID1575, AID2250, AID2260]", "type": "functional, cell-based"}, "HEK293": {"system": "HEK293", "test": "cells", "details": "Homo sapiens"}, "Trypsin": {"molecular_target": "Trypsin (Sus scrofa, UniProt P00761)", "sequence (P00761 whole entry)": "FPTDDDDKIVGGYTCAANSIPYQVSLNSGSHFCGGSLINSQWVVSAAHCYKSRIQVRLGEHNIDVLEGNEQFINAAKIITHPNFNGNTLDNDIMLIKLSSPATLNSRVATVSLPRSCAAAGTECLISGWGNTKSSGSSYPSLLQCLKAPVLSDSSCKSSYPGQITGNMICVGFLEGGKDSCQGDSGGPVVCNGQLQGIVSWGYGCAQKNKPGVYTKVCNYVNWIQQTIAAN", "test": "porcine trypsin inhibitors, dose response, selectivity assay for Rce1 protease inhibitor project, biochemical, quenched peptide fluorescence, cherry-pick (AID 488789)"}, "Cytochrome P450 3A4": {"molecular_target": "Cytochrome P450 3A4 (Homo sapiens, UniProt P08684)", "sequence (P08684 whole entry)": "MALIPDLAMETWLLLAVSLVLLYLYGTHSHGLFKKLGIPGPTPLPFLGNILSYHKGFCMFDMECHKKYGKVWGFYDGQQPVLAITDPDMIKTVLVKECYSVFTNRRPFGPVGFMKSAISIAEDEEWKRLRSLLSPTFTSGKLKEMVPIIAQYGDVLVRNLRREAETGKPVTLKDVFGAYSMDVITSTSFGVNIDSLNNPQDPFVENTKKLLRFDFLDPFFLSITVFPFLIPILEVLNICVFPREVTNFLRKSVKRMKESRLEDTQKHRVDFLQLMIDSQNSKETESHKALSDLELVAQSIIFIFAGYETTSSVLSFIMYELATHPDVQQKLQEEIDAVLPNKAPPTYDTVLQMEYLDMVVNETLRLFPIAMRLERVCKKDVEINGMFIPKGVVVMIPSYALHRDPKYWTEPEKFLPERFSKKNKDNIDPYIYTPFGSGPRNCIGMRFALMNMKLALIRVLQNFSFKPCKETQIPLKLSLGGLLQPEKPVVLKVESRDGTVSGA", "details": "Potency"}, "Cytochrome P450 2C9": {"molecular_target": "Cytochrome P450 2C9 (Homo sapiens, UniProt P11712)", "sequence (P11712 whole entry)": "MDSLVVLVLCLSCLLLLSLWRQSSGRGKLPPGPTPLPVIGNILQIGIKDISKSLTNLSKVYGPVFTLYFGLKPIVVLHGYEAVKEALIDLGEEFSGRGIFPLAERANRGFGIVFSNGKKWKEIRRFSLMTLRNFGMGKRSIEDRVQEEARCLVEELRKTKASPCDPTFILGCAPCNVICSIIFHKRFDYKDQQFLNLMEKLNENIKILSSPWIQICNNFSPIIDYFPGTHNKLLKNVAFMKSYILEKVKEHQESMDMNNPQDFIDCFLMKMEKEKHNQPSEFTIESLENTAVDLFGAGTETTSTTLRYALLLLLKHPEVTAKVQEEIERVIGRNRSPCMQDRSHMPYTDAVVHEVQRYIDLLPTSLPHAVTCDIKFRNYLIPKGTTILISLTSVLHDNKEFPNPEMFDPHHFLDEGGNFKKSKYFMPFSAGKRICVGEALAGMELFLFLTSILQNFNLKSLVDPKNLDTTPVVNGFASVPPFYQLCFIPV", "details": "Potency"}}, "note": "The source made the active and inactive calls."}
{"compound": "Cc1nn(C)c(Sc2ccccn2)c1[N+](=O)[O-]", "values": [{"measurement": "EC50", "setting": "[1]", "value": "> 195 µM (not active)"}, {"measurement": "EC50", "setting": "[2]", "value": "> 195 µM (inactive)"}, {"measurement": "EC50", "setting": "[3]", "value": "> 195 µM (not active)"}, {"measurement": "EC50", "setting": "[4]", "value": "1.7 µM (active)"}, {"measurement": "EC50", "setting": "[5]", "value": "88.4 µM (active)"}, {"measurement": "EC50", "setting": "H4", "value": "> 120 µM (not active)"}]}
{"compound": "CCC(Sc1nc(C)cc(O)n1)C(=O)Nc1nc2c(s1)CCCC2", "note": "(configuration not stated)", "values": [{"measurement": "EC50", "setting": "[6]", "value": "> 50 µM (not active)"}]}
{"compound": "CN1CC2=Cc3ccccc3OC23Oc2ccccc2C=C3C1", "values": [{"measurement": "IC50", "setting": "Protein Rev", "value": "> 75.4 µM (not active)"}, {"measurement": "IC50", "setting": "[7]", "value": "> 59.6 µM (inactive)"}, {"measurement": "EC50", "setting": "[8]", "value": "25 µM (active)"}, {"measurement": "EC50", "setting": "[9]", "value": "23 µM (active)"}, {"measurement": "IC50", "setting": "Bcl-2-related protein A1", "value": "> 20 µM (inactive)"}, {"measurement": "IC50", "setting": "[10]", "value": "2.55 µM (active)"}, {"measurement": "IC50", "setting": "[11]", "value": "3.5 µM (active)"}, {"measurement": "CC50", "setting": "Vero", "value": "18.9 µM (active)"}]}
{"compound": "O=C(O)CN1C(=O)/C(=C\\c2cn(-c3ccccc3)nc2-c2ccccc2)SC1=S", "values": [{"measurement": "IC50", "setting": "[12]", "value": "> 99 µM (inactive)"}, {"measurement": "EC50", "setting": "BJ [13]", "value": "31.1 µM (active)"}, {"measurement": "EC50", "setting": "BJ [14]", "value": "> 150 µM (not active)"}, {"measurement": "EC50", "setting": "BJ [15]", "value": "> 150 µM (not active)"}, {"measurement": "EC50", "setting": "[16]", "value": "41.4 µM (active)"}]}
{"compound": "CSCCC(NC(=O)c1ccccc1)C(=O)OCC(=O)Nc1sc2c(c1C#N)CCCC2", "note": "(configuration not stated)", "values": [{"measurement": "IC50", "setting": "Staphylococcus aureus", "value": "0.44 µM (active)"}]}
{"compound": "Nc1nc2ccccc2n1S(=O)(=O)c1ccc([N+](=O)[O-])cc1", "values": [{"measurement": "IC50", "setting": "Tumor necrosis factor", "value": "> 20 µM (inactive)"}, {"measurement": "IC50", "setting": "Interleukin-8", "value": "> 5 µM (inactive)"}, {"measurement": "IC50", "setting": "HEK293", "value": "> 20 µM (inactive)"}]}
{"compound": "COc1cccc(-c2ccc(-c3noc(-c4ccccc4F)n3)c(OC)n2)c1", "values": [{"measurement": "AC50", "setting": "Trypsin", "value": "14.3 µM (active)"}]}
{"compound": "CC1(C)CCC[C@@]2(C)[C@@H]1CC[C@]1(C)OC(=O)C[C@@H]21", "values": [{"measurement": "AC50", "setting": "Cytochrome P450 3A4", "value": "20 µM (inconclusive)"}, {"measurement": "AC50", "setting": "Cytochrome P450 2C9", "value": "39.8 µM (inconclusive)"}]}
